From ChEMBL document CHEMBL1136017, “Computational studies on tetrahydropyrimidine-2-one HIV-1 protease inhibitors: improving three-dimensional quantitative structure-activity relationship comparative molecular field analysis models by inclusion of calculated inhibitor- and receptor-based properties” (J Med Chem, 2002)

Biological target: Human immunodeficiency virus type 1 protease (Human immunodeficiency virus 1, UniProt Q72874)
Test: Inhibitory activity against HIV-1 protease

Structure (SMILES) | Ki
Cc1ccc(C(=O)Nc2cccc(CN3C(=O)N(Cc4cccc(NC(=O)c5ccc(C)cn5)c4)[C@H](Cc4ccccc4)[C@H](O)[C@H]3CCc3ccccc3)c2)nc1 | 0.0794 nM
Nc1cccc(CN2C(=O)N[C@H](Cc3ccccc3)[C@H](O)[C@H]2CCc2ccccc2)c1 | 6.17 nM
Nc1cccc(CN2C(=O)N[C@H](CCc3ccccc3)[C@@H](O)[C@H]2Cc2ccccc2)c1 | 158 nM
O=C(Nc1cccc(CN2C(=O)N(Cc3cccc(NC(=O)c4nccs4)c3)[C@H](Cc3ccccc3)[C@H](O)[C@H]2CCc2ccccc2)c1)c1nccs1 | 0.0302 nM
N/C(=N\O)c1cccc(CN2C(=O)N[C@H](CCc3ccccc3)[C@@H](O)[C@H]2Cc2ccccc2)c1 | 0.24 nM
